Assay results reported in patent US20240360175A1, “PEPTIDE DERIVATIVES AND RELATED USES AS OREXIN AGONISTS” (Centessa Pharmaceuticals (UK) Limited, priority 2021, published 2024).
Read-outs that look alike come from different tables or passages of the source. Numbered stars: 1 amine (or outer) side, 2 acyl side, 3 side chain; on linkers, the order of the positions; unused ones are H or OH. Square brackets hold non-standard residues; d marks the D form. Ends that are not written are not given here. Peptide text beside a SMILES is read from it. * marks the point of attachment. X8 = CCCCCC[C@H](NC(=O)[C@@H](NC[C@H](CC(C)C)N*)[C@@H](C)O)C(N)=O; Malonyl(2,2-Me2,histaminyl) = CC(C)(C(=O)NCCc1cnc[nH]1)C(=O)*; Gly(N-CH2CH2(4-MeOPh)) = COc1ccc(CCNCC(=O)O)cc1; hArg(Et2) = CCN=C(NCC)NCCCC[C@H](N)C(=O)O; X3 = NCCc1cccc(CCN(CC(=O)[*:2])[*:1])c1; X4 = CN(C)CCOCCOCCOCCOCCOCCOCCC(=O)*; Gly(NCH2CH2Ph) = O=C(O)CNCCc1ccccc1; PEG6 = NCCOCCOCCOCCOCCOCCOCCC(=O)O; Hyp = O=C(O)[C@@H]1C[C@@H](O)CN1; Hpg = N[C@H](C(=O)O)c1ccc(O)cc1; NMeN = CN[C@@H](CC(N)=O)C(=O)O; Aoc(2) = CCCCCC[C@H](N)C(=O)O; NMeL = CN[C@@H](CC(C)C)C(=O)O; PEG4 = NCCOCCOCCOCCOCCC(=O)O; Phg = N[C@H](C(=O)O)c1ccccc1; Nle = CCCC[C@H](N)C(=O)O

How the values were obtained:
[1] = tested on: orexin-neuron ablated mice; conditions: ICV; cited from earlier work
[2] = target: T1, human orexin type 1 receptor (hOX1R) (Homo sapiens, UniProt O43613); assay: Measurement of orexin type 1 receptor agonist activity (FLIPR TETRA intracellular Ca2+ fluorescence); assay type: cell-based
T1 construct: expressed in transfected cells
T1 sequence (O43613 1-425): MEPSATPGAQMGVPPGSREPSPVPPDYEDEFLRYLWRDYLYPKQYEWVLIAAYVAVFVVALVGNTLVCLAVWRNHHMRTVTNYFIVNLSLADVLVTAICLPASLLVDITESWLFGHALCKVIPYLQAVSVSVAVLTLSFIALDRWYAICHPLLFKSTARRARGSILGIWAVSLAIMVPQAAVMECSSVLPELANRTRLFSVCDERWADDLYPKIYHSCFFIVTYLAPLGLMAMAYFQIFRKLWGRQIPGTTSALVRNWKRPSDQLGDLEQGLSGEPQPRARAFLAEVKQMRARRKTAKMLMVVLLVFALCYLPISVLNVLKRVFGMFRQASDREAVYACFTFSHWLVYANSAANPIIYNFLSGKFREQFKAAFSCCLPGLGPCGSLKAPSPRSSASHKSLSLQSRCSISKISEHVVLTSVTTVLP
Procedure: (§1) Stable cell line generation. Obtainment of cells stably expressing either human orexin type 2 or human orexin type 1 receptor: to obtain a stable cell line the Orexin receptor cDNA was inserted into pcDNA3.1(+) plasmid vector and clones identified by G418 drug resistance selection. […] A single clone for OX2R—CHO and OX1R—CHO were grown in bulk and frozen to generate a cell bank for routine screening.
(§2) Measurement of orexin type 1 receptor agonist activity. Chinese hamster ovary (CHO) cells expressing human orexin type 1 receptor (hOX1R) were seeded in each well of 384 well black clear bottom plates (BD Flacon) at 10,000 cells per well and cultured for 24 h in an Ham's F12 (Gibco) medium containing 10% fetal calf serum (Sigma Aldrich) under the conditions of 37° C., 5% CO2. After removal of the medium, 50 μL of assay buffer 1 (0.1% bovine serum albumin (Sigma Aldrich), 20 mM HEPES (Molecular Dimensions), […] probenecid (Sigma Aldrich), 1× Calcium 5 dye (Molecular Devices) in Hank's balanced salt solution (Invitrogen)) was added, and the cells were incubated for 60 min under the conditions of 37° C., 5% CO2. A test peptide was dissolved in dimethyl sulfoxide (Sigma Aldrich) to 1 mM, and then diluted with assay buffer 2 (20 mM HEPES, Hank's balanced salt solution, 0.1% bovine serum albumin). For the reaction, a test peptide solution (10 μl) was added using Fluorescent Imaging Plate Reader TETRA (FLIPR TETRA: manufactured by Molecular Devices), a fluorescence value (excitation wavelength 488 nm, measurement wavelength 570 nm) of each well was measured every one second for 2 min, and the agonist activity was determined using the area of the fluorescence value as an indicator of intracellular Ca^2+ concentration. The agonist activity of the test peptide was calculated assuming that the fluorescence value of the well added with only the dilution buffer was 0% and the fluorescence value of the well added with 10 nM human orexin A (Tocris) buffer was 100%. As used herein, Emax indicates the value at 1 μM concentration when orexin A is converted to a full agonist (maximum value of agonist activity: 100%).

[3] = target: T2, human orexin type 2 receptor (hOX2R) (Homo sapiens, UniProt O43614); assay: Measurement of orexin type 2 receptor agonist activity (FLIPR TETRA intracellular Ca2+ fluorescence); assay type: cell-based
T2 construct: expressed in transfected cells
T2 sequence (O43614 1-444): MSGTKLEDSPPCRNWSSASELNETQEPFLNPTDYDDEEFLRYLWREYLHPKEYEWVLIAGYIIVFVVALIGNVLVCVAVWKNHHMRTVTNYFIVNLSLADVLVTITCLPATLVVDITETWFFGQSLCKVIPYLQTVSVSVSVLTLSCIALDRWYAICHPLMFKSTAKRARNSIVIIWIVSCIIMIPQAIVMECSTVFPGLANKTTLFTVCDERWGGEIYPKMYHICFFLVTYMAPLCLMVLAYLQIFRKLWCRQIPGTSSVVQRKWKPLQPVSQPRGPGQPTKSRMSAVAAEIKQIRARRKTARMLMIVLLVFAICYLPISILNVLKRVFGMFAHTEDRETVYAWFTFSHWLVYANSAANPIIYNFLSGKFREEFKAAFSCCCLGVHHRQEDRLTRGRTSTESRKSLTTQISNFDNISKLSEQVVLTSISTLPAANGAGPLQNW
Procedure: as §1
as §2, with “type 2” for “type 1”, “receptor (hOX2R)” for “receptor (hOX1R) were”

[4] = CHO cells expressing hOX1R, agonist activity, Ca2+ fluorescence, read-out: hOX1 pEC50 (converted)
[5] = CHO cells expressing hOX2R, agonist activity, Ca2+ fluorescence, read-out: hOX2 pEC50 (converted)

Molecule	EC50 [2, 4]	EC50 [3, 5]	other results
orexin A (QPLPDCCRQKTCSCRLYELLHGAGNHAAGILTL; ends and bridges not checked; cysteine pairing not given here; UniProt O43612 34-66, looked up) [orexin A (OXA), orexin neuropeptide cleaved from prepro-orexin]			cataplexy-like behavior [1]: decreases cataplexy-like behavior; time spent awake [1]: increase time spent awake
CCCCCC[C@H](NC(=O)[C@@H](NC(=O)[C@H](CC(C)C)NC(=O)[C@@H](NC(=O)CNC(=O)[C@@H](NC(=O)[C@H](C)NC(=O)[C@H](Cc1c[nH]cn1)NC(=O)[C@H](CC(N)=O)NC(=O)CN(CCc1ccccc1)C(=O)[C@@H](N)CCCCNC(=NCC)NCC)c1ccccc1)[C@@H](C)CC)[C@@H](C)O)C(N)=O [Peptide 24] (H-[hArg(Et2)][Gly(NCH2CH2Ph)]NHA[Phg]GILT[Aoc(2)]-NH2; N-terminus assumed)	> 10 nM	< 0.1 nM	
CCCCCC[C@H](NC(=O)[C@@H](NC(=O)[C@H](CC(C)C)NC(=O)[C@@H](NC(=O)CNC(=O)[C@@H](NC(=O)[C@H](C)NC(=O)[C@H](Cc1c[nH]cn1)NC(=O)[C@H](CC(N)=O)NC(=O)CN(CCc1ccccc1)C(=O)[C@H](CCCCNC(=NCC)NCC)NC(=O)C(C)(C)C(=O)NCCc1cnc[nH]1)c1ccc(O)cc1)[C@@H](C)CC)[C@@H](C)O)C(N)=O [Peptide 25] ({Malonyl(2,2-Me2,histaminyl)}-[hArg(Et2)][Gly(NCH2CH2Ph)]NHA[Hpg]GILT[Aoc(2)]-NH2)			EC50 [2]: > 10 nM; EC50 [3]: < 0.1 nM
CCCCCC[C@H](NC(=O)[C@@H](NC(=O)[C@H](CC(C)C)NC(=O)[C@@H](NC(=O)CNC(=O)[C@@H](NC(=O)[C@H](C)NC(=O)[C@H](Cc1c[nH]cn1)NC(=O)[C@H](CC(N)=O)NC(=O)CN(CCc1ccc(OC)cc1)C(=O)[C@@H](N)CCCCN/C(=N/CC)NCC)c1ccccc1)[C@@H](C)CC)[C@@H](C)O)C(N)=O [Peptide 18] (H-[hArg(Et2)][Gly(N-CH2CH2(4-MeOPh))]NHA[Phg]GILT[Aoc(2)]-NH2)	> 10 nM	< 0.1 nM	
CCCCCC[C@H](NC(=O)[C@@H](NC(=O)[C@H](CC(C)C)NC(=O)[C@@H](NC(=O)CNC(=O)[C@@H](NC(=O)[C@H](C)NC(=O)[C@@H]1C[C@@H](O)CN1C(=O)[C@H](CC(N)=O)NC(=O)CN(CCc1ccccc1)C(=O)[C@H](CCCNC(=N)N)NC(=O)CCOCCOCCOCCOCCN)c1ccccc1)[C@@H](C)CC)[C@@H](C)O)C(N)=O [Peptide 5] (H-[PEG4]R[Gly(NCH2CH2Ph)]N[Hyp]A[Phg]GILT[Aoc(2)]-NH2)	> 10 nM	< 0.1 nM	
CCCCCC[C@H](NC(=O)[C@@H](NC(=O)[C@H](CC(C)C)NC(=O)[C@@H](NC(=O)CNC(=O)[C@@H](NC(=O)[C@H](C)NC(=O)[C@H](CCC(N)=O)NC(=O)[C@H](CC(N)=O)NC(=O)CN(CCc1ccccc1)C(=O)[C@@H](N)CCCCN/C(=N/CC)NCC)c1ccc(O)cc1)[C@@H](C)CC)[C@@H](C)O)C(N)=O [Peptide 23] (H-[hArg(Et2)][Gly(NCH2CH2Ph)]NQA[Hpg]GILT[Aoc(2)]-NH2)	> 10 nM	< 0.1 nM	
CCCCCC[C@H](NC(=O)[C@@H](NC(=O)[C@H](CC(C)C)NC(=O)[C@@H](NC(=O)CNC(=O)[C@@H](NC(=O)[C@H](C)NC(=O)[C@@H]1C[C@@H](O)CN1C(=O)[C@H](CC(N)=O)N(C)C(=O)CN(CCc1cccc(CCN)c1)C(=O)[C@@H](N)CCCNC(=N)N)c1ccccc1)[C@@H](C)CC)[C@@H](C)O)C(N)=O [Peptide 19] (H-R[X3][NMeN][Hyp]A[Phg]GILT[Aoc(2)]-NH2)	> 10 nM	< 0.1 nM	
CCCCCC[C@H](NC(=O)[C@@H](NC(=O)[C@H](CC(C)C)N(C)C(=O)[C@@H](NC(=O)CNC(=O)[C@@H](NC(=O)[C@H](C)NC(=O)[C@@H]1C[C@@H](O)CN1C(=O)[C@H](CC(N)=O)N(C)C(=O)CN(CCc1ccccc1)C(=O)[C@H](CCCNC(=N)N)NC(=O)CCOCCOCCOCCOCCOCCOCCN)c1ccccc1)[C@@H](C)CC)[C@@H](C)O)C(N)=O [Peptide 31] (H-[PEG6]R[Gly(NCH2CH2Ph)][NMeN][Hyp]A[Phg]GI[NMeL]T[Aoc(2)]-NH2)	> 10 nM	< 0.1 nM	

Further lines, with some results ahead:

EC50 [2, 4]	EC50 [3, 5]	Molecule	other results
1 to 10 nM	< 0.1 nM	CCCCCC[C@H](NC(=O)[C@@H](NC(=O)[C@H](CC(C)C)NC(=O)[C@@H](NC(=O)CNC(=O)[C@@H](NC(=O)[C@H](C)NC(=O)[C@@H]1C[C@@H](O)CN1C(=O)[C@H](CC(N)=O)NC(=O)CN(CCc1ccccc1)C(=O)[C@H](CCCNC(=N)N)NC(=O)CCOCCOCCOCCOCCOCCOCCN(C)C)c1ccccc1)[C@@H](C)CC)[C@@H](C)O)C(N)=O [Peptide 2] (X4-R[Gly(NCH2CH2Ph)]N[Hyp]A[Phg]GILT[Aoc(2)]-NH2)	
> 10 nM	< 0.1 nM	CCCCCC[C@H](NC(=O)[C@@H](NC(=O)[C@H](CC(C)C)N(C)C(=O)[C@@H](NC(=O)CNC(=O)[C@@H](NC(=O)[C@H](C)NC(=O)[C@@H]1C[C@@H](O)CN1C(=O)[C@H](CC(N)=O)NC(=O)CN(CCc1ccccc1)C(=O)[C@H](CCCNC(=N)N)NC(=O)CCOCCOCCOCCOCCOCCOCCN)c1ccccc1)[C@@H](C)CC)[C@@H](C)O)C(N)=O [Peptide 29] (H-[PEG6]R[Gly(NCH2CH2Ph)]N[Hyp]A[Phg]GI[NMeL]T[Aoc(2)]-NH2)	
> 10 nM	< 0.1 nM	CCCC[C@H](NC(=O)[C@@H](NC(=O)[C@H](CC(C)C)NC(=O)[C@@H](NC(=O)CNC(=O)[C@@H](NC(=O)[C@H](C)NC(=O)[C@@H]1C[C@@H](O)CN1C(=O)[C@H](CC(N)=O)NC(=O)CN(CCc1ccccc1)C(=O)[C@H](CCCNC(=N)N)NC(=O)CCOCCOCCOCCOCCOCCOCCN)c1ccccc1)[C@@H](C)CC)[C@@H](C)O)C(N)=O [Peptide 28] (H-[PEG6]R[Gly(NCH2CH2Ph)]N[Hyp]A[Phg]GILT[Nle]-NH2)	
> 10 nM	< 0.1 nM	CCCCCC[C@H](NC(=O)[C@@H](NC[C@H](CC(C)C)NC(=O)[C@@H](NC(=O)CNC(=O)[C@@H](NC(=O)[C@H](C)NC(=O)[C@@H]1C[C@@H](O)CN1C(=O)[C@H](CC(N)=O)NC(=O)CN(CCc1ccccc1)C(=O)CCOCCOCCOCCOCCOCCOCCN)c1ccccc1)[C@@H](C)CC)[C@@H](C)O)C(N)=O [Peptide 1] (H-[PEG6][Gly(NCH2CH2Ph)]N[Hyp]A[Phg]GI-X8)	
